# In PubChem BioAssay AID330 (DTP/NCI, 2004):
# Inconclusive results and toxic doses are left out.
# Tested on: P388 leukemia ip, CD2F1 mice, survival T/C
# Experiment: NCI In Vivo Anticancer Drug Screen. Data for tumor model P388 Leukemia (intraperitoneal) in CD2F1 (CDF1) mice
# Conditions: endpoint: median survival time, higher = longer survival
# In short: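 Mice carrying the transplanted tumor received test compound or vehicle. Survival was recorded in each group, and the value is the treated-group measurement divided by that of the vehicle-treated control group.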
# [1] = dose: 60.0 mg/kg/injection, schedule: Q01DX005 (ip), vehicle: saline with Tween-80
# [2] = dose: 120.0 mg/kg/injection, schedule: Q01DX005 (ip), vehicle: saline with Tween-80
# [3] = dose: 240.0 mg/kg/injection, schedule: Q01DX005 (ip), vehicle: saline with Tween-80
# [4] = dose: 50.0 mg/kg/injection, schedule: Q01DX005 (ip), vehicle: saline with Tween-80
# [5] = dose: 100.0 mg/kg/injection, schedule: Q01DX005 (ip), vehicle: saline with Tween-80
# [6] = dose: 200.0 mg/kg/injection, schedule: Q01DX005 (ip), vehicle: saline with Tween-80
# [7] = dose: 50.0 mg/kg/injection, schedule: Q01DX009 (ip), vehicle: saline
# [8] = dose: 100.0 mg/kg/injection, schedule: Q01DX009 (ip), vehicle: saline
# [9] = dose: 25.0 mg/kg/injection, schedule: Q01DX005 (ip), vehicle: Klucel (hydroxypropylcellulose) (HPC)
# [10] = dose: 50.0 mg/kg/injection, schedule: Q01DX005 (ip), vehicle: Klucel (hydroxypropylcellulose) (HPC)
# [11] = dose: 100.0 mg/kg/injection, schedule: Q01DX005 (ip), vehicle: Klucel (hydroxypropylcellulose) (HPC)
# [12] = dose: 200.0 mg/kg/injection, schedule: Q01DX005 (ip), vehicle: Klucel (hydroxypropylcellulose) (HPC)
# [13] = dose: 50.0 mg/kg/injection, schedule: Q01DX005 (ip), vehicle: saline
# [14] = dose: 100.0 mg/kg/injection, schedule: Q01DX005 (ip), vehicle: saline
smiles,measurement,setting,value
CC12C(=O)NC(c3ccccc3)(c3ccccc31)C1C(=O)N(C(N)=O)C(=O)C12 (configuration not stated),T/C,[1],94 % of control
same,T/C,[2],89 % of control
same,T/C,[3],93 % of control
CC(C)/[N+]([O-])=N\O,T/C,"dose: 3.0 mg/kg/injection, schedule: Q01DX005 (ip), vehicle: Klucel (hydroxypropylcellulose) (HPC)",101 % of control
same,T/C,"dose: 6.0 mg/kg/injection, schedule: Q01DX005 (ip), vehicle: Klucel (hydroxypropylcellulose) (HPC)",98 % of control
same,T/C,"dose: 12.0 mg/kg/injection, schedule: Q01DX005 (ip), vehicle: Klucel (hydroxypropylcellulose) (HPC)",100 % of control
same,T/C,"dose: 24.0 mg/kg/injection, schedule: Q01DX005 (ip), vehicle: Klucel (hydroxypropylcellulose) (HPC)",98 % of control
CN1C2CCC1C(C(=O)O)C(O)C2 (configuration not stated),T/C,"dose: 100.0 mg/kg/injection, schedule: Q04DX002 (ip), vehicle: saline with Tween-80",101 % of control
same,T/C,"dose: 200.0 mg/kg/injection, schedule: Q04DX002 (ip), vehicle: saline with Tween-80",96 % of control
same,T/C,"dose: 400.0 mg/kg/injection, schedule: Q04DX002 (ip), vehicle: saline with Tween-80",92 % of control
CCCC1(CC)CNC(=O)NC1=O (configuration not stated),T/C,[4],100 % of control
same,T/C,[5],93 % of control
same,T/C,[6],99 % of control
O=S(=O)(N1CCCCC1)n1nnc2cc3ccccc3cc21,T/C,"dose: 50.0 mg/kg/injection, schedule: Q01DX009 (ip), vehicle: acetone",98 % of control
same,T/C,"dose: 100.0 mg/kg/injection, schedule: Q01DX009 (ip), vehicle: acetone",97 % of control
same,T/C,"dose: 200.0 mg/kg/injection, schedule: Q01DX009 (ip), vehicle: acetone",97 % of control
N#CC(C#N)=C(O)/C(=C/c1ccc(Cl)cc1Cl)NC(=O)c1ccccc1,T/C,[1],107 % of control
same,T/C,[2],98 % of control
same,T/C,[3],100 % of control
COc1ccc(/C=C2/C(=O)ON=C2C)cc1OC,T/C,[1],99 % of control
same,T/C,[2],96 % of control
same,T/C,[3],96 % of control
OC[CH2][Hg][Br],T/C,"dose: 0.37 mg/kg/injection, schedule: Q01DX009 (ip), vehicle: saline",101 % of control
same,T/C,"dose: 0.75 mg/kg/injection, schedule: Q01DX009 (ip), vehicle: saline",101 % of control
same,T/C,"dose: 1.5 mg/kg/injection, schedule: Q01DX009 (ip), vehicle: saline",101 % of control
same,T/C,"dose: 3.0 mg/kg/injection, schedule: Q01DX009 (ip), vehicle: saline",118 % of control
same,T/C,"dose: 6.0 mg/kg/injection, schedule: Q01DX009 (ip), vehicle: saline",104 % of control
NS(=O)(=O)c1ccc(N=Cc2c3ccccc3nc3cc(Cl)ccc23)cc1,T/C,[4],91 % of control
same,T/C,[5],88 % of control
same,T/C,[6],88 % of control
COC(=O)c1[c]([Sn]([CH3])([CH3])[CH3])n[n]([Sn]([CH3])([CH3])[CH3])c1C(=O)OC,T/C,"dose: 6.25 mg/kg/injection, schedule: Q04DX003 (ip), vehicle: saline",98 % of control
same,T/C,"dose: 12.5 mg/kg/injection, schedule: Q04DX003 (ip), vehicle: saline",98 % of control
Cc1cc(/C=C/c2ccccc2)nc(/C=C/c2ccccc2)c1,T/C,[1],104 % of control
same,T/C,[2],97 % of control
same,T/C,[3],100 % of control
[Cu].c1ccc2c3[n-]c(c2c1)/N=c1\[n-]/c(c2ccccc12)=N\c1[n-]c(c2ccccc12)/N=c1\[n-]/c(c2ccccc12)=N\3,T/C,[7],104 % of control
same,T/C,[8],93 % of control
CN1CC(C2(O)CCN(C)C2=O)C(O)C1=O (configuration not stated),T/C,"dose: 100.0 mg/kg/injection, schedule: Q01DX001 (ip), vehicle: saline",104 % of control
same,T/C,"dose: 200.0 mg/kg/injection, schedule: Q01DX001 (ip), vehicle: saline",97 % of control
O=C(O)c1ccc(NC(=O)C2C(=O)C(=O)N(c3ccc(C(=O)O)cc3)C2=O)cc1 (configuration not stated),T/C,"dose: 50.0 mg/kg/injection, schedule: Q01DX009 (ip), vehicle: Klucel (hydroxypropylcellulose) (HPC)",104 % of control
same,T/C,"dose: 100.0 mg/kg/injection, schedule: Q01DX009 (ip), vehicle: Klucel (hydroxypropylcellulose) (HPC)",100 % of control
same,T/C,"dose: 200.0 mg/kg/injection, schedule: Q01DX009 (ip), vehicle: Klucel (hydroxypropylcellulose) (HPC)",103 % of control
NNC(=O)C(=O)NCc1ccco1,T/C,"dose: 12.5 mg/kg/injection, schedule: Q01DX009 (ip), vehicle: saline with Tween-80",88 % of control
same,T/C,"dose: 25.0 mg/kg/injection, schedule: Q01DX009 (ip), vehicle: saline with Tween-80",98 % of control
same,T/C,"dose: 50.0 mg/kg/injection, schedule: Q01DX009 (ip), vehicle: saline with Tween-80",95 % of control
Cc1ccc(SNc2ccccc2)cc1,T/C,"dose: 50.0 mg/kg/injection, schedule: Q04DX003 (ip), vehicle: saline with Tween-80",96 % of control
same,T/C,"dose: 100.0 mg/kg/injection, schedule: Q04DX003 (ip), vehicle: saline with Tween-80",96 % of control
N/C=N/OC(c1ccccc1)c1ccccc1,T/C,"dose: 50.0 mg/kg/injection, schedule: Q01DX005 (ip), vehicle: Klucel + Tween-80",99 % of control
same,T/C,"dose: 100.0 mg/kg/injection, schedule: Q01DX005 (ip), vehicle: Klucel + Tween-80",102 % of control
same,T/C,"dose: 200.0 mg/kg/injection, schedule: Q01DX005 (ip), vehicle: Klucel + Tween-80",98 % of control
CCN(CC)P(CCCCP(N(CC)CC)N(CC)CC)N(CC)CC,T/C,"dose: 60.0 mg/kg/injection, schedule: Q01DX005 (ip), vehicle: Klucel (hydroxypropylcellulose) (HPC)",106 % of control
same,T/C,"dose: 120.0 mg/kg/injection, schedule: Q01DX005 (ip), vehicle: Klucel (hydroxypropylcellulose) (HPC)",103 % of control
same,T/C,"dose: 240.0 mg/kg/injection, schedule: Q01DX005 (ip), vehicle: Klucel (hydroxypropylcellulose) (HPC)",104 % of control
N#Cc1c(N)[nH]c2ccc(Sc3ccccc3)cc12,T/C,"dose: 7.5 mg/kg/injection, schedule: Q01DX005 (ip), vehicle: saline with Tween-80",97 % of control
same,T/C,"dose: 15.0 mg/kg/injection, schedule: Q01DX005 (ip), vehicle: saline with Tween-80",99 % of control
same,T/C,"dose: 30.0 mg/kg/injection, schedule: Q01DX005 (ip), vehicle: saline with Tween-80",104 % of control
Oc1ccc(CCC2CCC(c3ccc(O)cc3)CO2)cc1 (configuration not stated),T/C,"dose: 12.5 mg/kg/injection, schedule: Q01DX005 (ip), vehicle: Klucel (hydroxypropylcellulose) (HPC)",97 % of control
same,T/C,[9],103 % of control
same,T/C,[10],86 % of control
same,T/C,[11],89 % of control
same,T/C,[12],89 % of control
CCOC(=O)C(C(=O)OCC)=C(N)C(Cl)(Cl)Cl,T/C,[9],116 % of control
same,T/C,[10],117 % of control
same,T/C,[11],111 % of control
same,T/C,[12],110 % of control
CC12NC(=O)NC1(C)NC(=O)N2 (configuration not stated),T/C,[7],107 % of control
same,T/C,[8],87 % of control
same,T/C,"dose: 100.0 mg/kg/injection, schedule: Q04DX003 (ip), vehicle: saline",103 % of control
same,T/C,"dose: 200.0 mg/kg/injection, schedule: Q04DX003 (ip), vehicle: saline",97 % of control
CCN(CC)CCCNc1cc(OC)cc2nc3cc(Cl)ccc3nc12,T/C,[13],100 % of control
same,T/C,[14],106 % of control
CO[C@@]12[C@@H]3N[C@@H]3CN1C1=C(C(=O)C(N3CCCC3)=C(C)C1=O)[C@@H]2COC(N)=O,T/C,"dose: 0.78 mg/kg/injection, schedule: Q01DX005 (ip), vehicle: saline with Tween-80",193 % of control
same,T/C,"dose: 3.75 mg/kg/injection, schedule: Q01DX005 (ip), vehicle: saline with Tween-80",186 % of control
same,T/C,"dose: 10.4 mg/kg/injection, schedule: Q01DX005 (ip), vehicle: saline with Tween-80",214 % of control
same,T/C,"dose: 17.4 mg/kg/injection, schedule: Q01DX005 (ip), vehicle: saline with Tween-80",214 % of control
same,T/C,"dose: 25.0 mg/kg/injection, schedule: Q01DX005 (ip), vehicle: saline with Tween-80",87 % of control
CC1(C)N=C(c2ccccc2)C(c2ccccc2)=NC1(C)C,T/C,"dose: 100.0 mg/kg/injection, schedule: Q04DX002 (ip), vehicle: saline",101 % of control
same,T/C,"dose: 200.0 mg/kg/injection, schedule: Q04DX002 (ip), vehicle: saline",98 % of control
same,T/C,"dose: 400.0 mg/kg/injection, schedule: Q04DX002 (ip), vehicle: saline",104 % of control
COC(=O)C1C2C=CC(C1C(=O)OC)C1C3C(=O)N(N)C(=O)C3C21 (configuration not stated),T/C,[4],100 % of control
same,T/C,[5],96 % of control
same,T/C,[6],91 % of control
CCN(CC)CCO/N=c1\nc(-c2ccccc2)c2cc(Cl)ccc2s1,T/C,[7],100 % of control
same,T/C,[8],103 % of control
same,T/C,"dose: 200.0 mg/kg/injection, schedule: Q01DX009 (ip), vehicle: saline",104 % of control
CN(C)CCN1c2ccccc2Oc2ccccc21,T/C,[13],104 % of control
same,T/C,[14],95 % of control
